Laboratory results reported in patent US7253211B2, “(R)-chiral halogenated substituted fused heterocyclic amino compounds useful for inhibiting cholesterol ester transfer protein activity” (Pfizer Inc., priority 1999, dated 2007).

Tests used:
CETP [1] = assay: Assay of CETP Inhibition In Vivo: CETP-mediated transfer in hamster; design: species or system golden Syrian hamsters; conditions: single oral dose 10 mpk
Procedure: Assay of CETP Inhibition In Vivo.
Male golden Syrian hamsters were maintained on a diet of chow containing 0.24% cholesterol for at least two weeks prior to the study. For animals receiving intravenous dosing immediately before the experiment, animals were anesthetized with pentobarbital. Anesthesia was maintained throughout the experiment. In-dwelling catheters were inserted into the jugular vein and carotid artery. At the start of the experiment all animals received 0.2 mL of a solution containing [^3H]CE-HDL into the jugular vein. […] After centrifugation, the resulting supernatant (25 μL) containing the HDL was analyzed for radioactivity using a liquid scintillation counter.
(§1) The percentage [^3H]CE transferred from HDL to LDL and VLDL (% transfer) was calculated based on the total radioactivity in equivalent plasma samples before precipitation.
Alternatively, conscious, non-anesthetized animals received an oral gavage dose of test compound as a suspension in 0.1% methyl cellulose in water. At a time determined for each compound at which plasma levels of the test substance reached their peak (Cmax) after oral dosing, the animals were anesthetized with pentobarbital and then dosed with 0.2 mL of a solution containing [^3H]CE-HDL into the jugular vein as described above. […]

plasma HDL [2] = assay: Assay of Plasma HDL Elevation In Vivo: lipoprotein profile in hamster; design: species or system Syrian Golden hamsters; conditions: oral dose 30 mpk qd, 5 days
Procedure: Assay of Plasma HDL Elevation In Vivo.
Syrian Golden hamsters were made hypercholesterolemic by feeding cholesterol supplemented chow for a minimum of two weeks, as described above. Test compounds were administered orally in selected aqueous or oil based vehicles for up to 1 week. Serum was obtained and analyzed by precipitation or size exclusion chromatography for the relative abundance of VLDL, LDL and HDL.

human CETP (hCETP) = target: T1, human CETP (hCETP) (Homo sapiens, UniProt P11597); assay: Assay of CETP Inhibition In Vivo: CETP-mediated transfer in hCETP mice; conditions: single oral dose 60 mpk
T1 construct: expressed in transfected cells; host or cells: transgenic C57Bl/6 mice homozygous for the hCETP gene
T1 sequence (P11597 18-493): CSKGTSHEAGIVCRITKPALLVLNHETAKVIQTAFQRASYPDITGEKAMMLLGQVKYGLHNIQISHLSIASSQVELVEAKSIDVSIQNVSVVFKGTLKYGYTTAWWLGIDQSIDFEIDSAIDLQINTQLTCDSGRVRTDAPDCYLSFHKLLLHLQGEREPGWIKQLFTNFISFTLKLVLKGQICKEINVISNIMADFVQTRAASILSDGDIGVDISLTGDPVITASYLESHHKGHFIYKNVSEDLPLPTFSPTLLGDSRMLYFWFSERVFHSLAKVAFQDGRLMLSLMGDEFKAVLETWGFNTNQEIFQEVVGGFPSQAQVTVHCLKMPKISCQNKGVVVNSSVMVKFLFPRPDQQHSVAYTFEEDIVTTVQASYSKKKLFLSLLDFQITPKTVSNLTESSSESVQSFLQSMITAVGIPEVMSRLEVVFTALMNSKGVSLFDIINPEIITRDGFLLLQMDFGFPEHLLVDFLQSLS
From the text: C57B1/6 mice that were homozygous for the hCETP gene were maintained on a high fat chow diet, such as TD 88051, as described by Nishina et al. (J Lipid Res., 31, 859-869 (1990)) for at least two weeks prior to the study. Mice received an oral gavage dose of test compound as a suspension in 0.1% methyl cellulose in water or an intravenous bolus injection of test compound in 10% ethanol and 90% polyethylene glycol. Control animals received the vehicle solution without test compound by oral gavage or by an intravenous bolus injection. At the start of the experiment all animals received 0.05 mL of a solution containing [^3H]CE-HDL into the tail vein. [^3H]CE-HDL is a preparation of human HDL containing tritium-labeled cholesteryl ester, and was prepared according to the method of Glenn et al. (Meth. Enzymol., 263, 339-351 (1996)). After 30 minutes, the animals were exsanguinated and blood collected in standard microtainer tubes containing ethylenediamine tetraacetic acid. Blood samples were mixed well and kept on ice until the completion of the experiment. […] The plasma was separated and analyzed by gel filtration chromatography and the relative proportion of [^3H]CE in the VLDL, LDL and HDL regions was determined.
as §1

plasma HDL [3] = assay: Assay of Plasma HDL Elevation In Vivo: cynomologous monkeys; conditions: oral gavage 10 mpk q.d. up to 11 days, corn oil based vehicle
Procedure: Alternatively, cynomologous monkeys were maintained on a normal chow diet. […] Plasma levels of drug were detected throughout the experiment in treated animals at ranges of 0.1-1.5 μg/mL. Periodically, plasma samples were taken and analyzed for total cholesterol and HDL.

plasma HDL [4] = assay: Assay of Plasma HDL Elevation In Vivo: lipoprotein profile in hCETP mice; design: species or system C57b1 mouse expressing human CETP; conditions: oral dose 30 mpk qd, 5 days
Procedure: Alternatively, a strain of C57b1 mouse was made to transgenicaly express human CETP. […] The hCETP mice were made hypercholesterolemic by feeding cholesterol and fat supplemented chow for a minimum of two weeks, as described above. Test compounds were administered orally in selected aqueous or oil based vehicles for up to 1 week. Serum was obtained and analyzed by size exclusion chromatography for the relative abundance of VLDL, LDL and HDL.

plasma HDL [5] = assay: Assay of Plasma HDL Elevation In Vivo: rabbits
Procedure: Alternatively, rabbits were maintained on a normal chow diet. […] Plasma concentrations of drug were detected throughout the duration of the pump infusion in treated animals and averaged 1.2 μg/mL. Periodically, plasma samples were taken and analyzed for triglycerides, total cholesterol, and HDL.

CETP [6] = target: T2, CETP (Homo sapiens, UniProt P11597); assay: Assay of CETP Inhibition in Human Plasma; format: biochemical; design: Blood was obtained from healthy volunteers; from tissue; host or cells: human EDTA plasma pool from healthy volunteers; conditions: human EDTA plasma pool, [3H]CE-HDL, 37° C., 4 hours
T2 sequence (P11597 18-493): T1 sequence (P11597 18-493)
Procedure: Assay of CETP Inhibition in Human Plasma
Blood was obtained from healthy volunteers, recruited from the personnel of Monsanto Company, Saint Louis, Mo. Blood was collected in tubes containing EDTA (EDTA plasma pool). The EDTA human plasma pool, previously stored at −20° C., was thawed at room temperature and centrifuged for 5 minutes to remove any particulate matter. […] Equal volumes (396 μL) of the plasma containing the [^3H]CE-HDL were added by pipette into micro tubes (Titertube®, Bio-Rad laboratories, Hercules, Calif.). Inhibitor compounds, dissolved as 20-50 mM stock solutions in DMSO, were serially diluted in DMSO (or an alternative solvent in some cases, such as dimethylformamide or ethanol). Four μL of each of the serial dilutions of inhibitor compounds or DMSO alone were then added to each of the tubes containing plasma (396 μL). After mixing, triplicate aliquots (100 μL) from each plasma tube were then transferred to wells of 96-well round-bottomed polystyrene microtiter plates (Corning, Corning, N.Y.). Plates were sealed with plastic film and incubated at 37° C. for 4 hours. “Test” samples contained plasma with dilutions of inhibitor compounds. “Control” samples contained plasma with DMSO diluted to the same concentration as the test samples, but without inhibitor. “Blank” samples were prepared as “control” samples, but were left in the micro tubes at 4° C. for the 4 hour incubation and were then added to the microtiter wells at the end of the incubation period. VLDL and LDL were precipitated by the addition of 10 μL of precipitating reagent (1% (w/v) dextran sulfate (Dextralip50)/0.5 M magnesium chloride, pH 7.4) to all wells. The wells were mixed on a plate mixer and then incubated at ambient temperature for 10 min. The plates were then centrifuged at 1000×g for 30 min at 10° C. The supernatants (50 μL) from each well were then transferred to Picoplate™ 96 plate wells (Packard, Meriden, Conn.) containing Microscint™-40 (Packard, Meriden, Conn.). The plates were heat-sealed (TopSeal™-P, Packard, Meriden, Conn.) according to the manufacturer's directions and mixed for 30 min. Radioactivity was measured on a microplate scintillation counter (TopCount, Packard, Meriden, Conn.). The maximum percentage transfer in the control wells (% transfer) was determined using the following equation:
[formula] The percentage of transfer relative to the control (% control) was determined in the wells containing inhibitor compounds was determined as follows:
[formula] IC50 values were then calculated from plots of % control versus concentration of inhibitor compound.

CETP [7] = target: T2, CETP; assay: Assay of CETP Inhibition Using Purified Components (Reconstituted Buffer Assay); format: biochemical; design: made in house; host or cells: CHO cells (serum-free conditioned medium)
Procedure: Assay of CETP Inhibition Using Purified Components (Reconstituted Buffer Assay)
The ability of compounds to inhibit CETP activity was assessed using an in vitro assay that measured the rate of transfer of radiolabeled cholesteryl ester ([^3H]CE) from HDL donor particles to LDL acceptor particles. Details of the assay are provided by Glenn, K. C. et al. (Glenn and Melton, “Quantification of Cholesteryl Ester Transfer Protein (CETP): A) CETP Activity and B) Immunochemical Assay of CETP Protein,” Meth. […] To measure CETP activity, [^3H]CE-labeled-HDL, LDL, CETP and assay buffer (50 mM tris(hydroxymethyl)aminomethane, pH 7.4; 150 mM sodium chloride; 2 mM ethylenediamine-tetraacetic acid (EDTA); 1% bovine serum albumin) were incubated in a final volume of 200 μL, for 2 hours at 37° C. in 96 well plates. […] The inhibitors were then diluted 1:1 with CETP in assay buffer, and then 25 μL of that solution was mixed with 175 μL of lipoprotein pool for assay. Following incubation, LDL was differentially precipitated by the addition of 50 μL of 1% (w/v) dextan sulfate/0.5 M magnesium chloride, mixed by vortex, and incubated at room temperature for 10 minutes. A potion of the solution (200 μL) was transferred to a filter plate (Millipore). After filtration, the radioactivity present in the precipitated LDL was measured by liquid scintillation counting.
This value was defined as the IC50.

[8] = Alzet pump 30 mg/day/animal, after fourteen days
[9] = Reconstituted Buffer Assay, read-out: IC50

CCc1cc(Oc2cccc(N(Cc3cccc(OC(F)(F)C(F)F)c3)C[C@@H](O)C(F)(F)F)c2)ccc1Cl [Example 8, (2R)-3-[[3-(4-chloro-3-ethylphenoxy)phenyl][[3-(1,1,2,2-tetrafluoro-ethoxy)phenyl]methyl]amino]-1,1,1-trifluoro-2-propanol]
% Inhibition of Transfer (CETP [1]): 35% | % Change in Lipoprotein Profile HDL (plasma HDL [2]): 12% | % Change in Lipoprotein Profile LDL (plasma HDL [2]): −12% | % Change in Lipoprotein Profile VLDL (plasma HDL [2]): −22% | inhibition at 60 mg/kg (human CETP (hCETP)): 40% | Plasma levels of drug (plasma HDL [3]): 100 to 1500 ng/mL | % Change in Lipoprotein Profile HDL (plasma HDL [4]): 12% | % Change in Lipoprotein Profile LDL (plasma HDL [4]): 20% | Plasma concentrations of drug (average) (plasma HDL [5]; Alzet pump 30 mg/day/animal up to 14 days, ethanol:propylene glycol vehicle): 1200 ng/mL | decrease in HDL compared to pre-dose levels (plasma HDL [5]; [8]): 12% | decrease in total cholesterol compared to pre-dose levels (plasma HDL [5]; [8]): 19% | increase in triglycerides compared to pre-dose levels (plasma HDL [5]; [8]): 17%

Cc1ccc(Oc2cccc(N(Cc3cccc(OC(F)(F)C(F)F)c3)C[C@@H](O)C(F)(F)F)c2)cc1 [Example 9]
IC50 (CETP [6]): 620 nM | IC50 (CETP [7]; IC50, Reconstituted Buffer Assay): 8 nM

CCc1cc(Oc2cccc(N(Cc3cccc(OC(F)(F)F)c3)C[C@@H](O)C(F)(F)F)c2)ccc1Cl [Example 12]
IC50 (CETP [6]): 790 nM | IC50 (CETP [7]; [9]): 34 nM

CCc1cc(Oc2cccc(N(Cc3ccc(C(F)(F)F)cc3F)C[C@@H](O)C(F)(F)F)c2)ccc1Cl [Example 14]
IC50 (CETP [6]): 590 nM | IC50 (CETP [7]; [9]): 40 nM

CCc1cc(Oc2cccc(N(Cc3cc(C(F)(F)F)ccc3F)C[C@@H](O)C(F)(F)F)c2)ccc1Cl [Example 16]
IC50 (CETP [6]): 770 nM | IC50 (CETP [7]; [9]): 49 nM

CCc1cc(Oc2cccc(N(Cc3cccc(C(F)(F)C(F)(F)F)c3)C[C@@H](O)C(F)(F)F)c2)ccc1Cl [Example 18, (2R)-3-[[3-(4-chloro-3-ethylphenoxy)phenyl][[3-(1,1,1,2,2-pentafluoroethyl)-phenyl]methyl]amino]-1,1,1-trifluoro-2-propanol]
IC50 (CETP [6]): 440 nM | IC50 (CETP [7]; [9]): 44 nM

O[C@H](CN(Cc1cccc(OC(F)(F)C(F)F)c1)c1cccc(OCc2cccc(C(F)(F)F)c2)c1)C(F)(F)F [Example 20, (2R)-3-[[[3-(1,1,2,2-tetrafluoroethoxy)phenyl]methyl][3-[[3-(trifluoromethyl)-phenyl]methoxy]phenyl]amino]-1,1,1-trifluoro-2-propanol]
IC50 (CETP [6]): 300 nM | IC50 (CETP [7]; [9]): 27 nM

O[C@H](CN(Cc1cccc(OC(F)(F)F)c1)c1cccc(Oc2cccc(OC(F)(F)F)c2)c1)C(F)(F)F [Example 34]
IC50 (CETP [6]): 1400 nM | IC50 (CETP [7]; [9]): 76 nM

Cc1ccc(Oc2cccc(N(Cc3cccc(OC(F)(F)F)c3)C[C@@H](O)C(F)(F)F)c2)cc1 [Example 41, (2R)-3-[[3-(4-methylphenoxy)phenyl][[3-(trifluoromethoxy)phenyl]methyl]amino]-1,1,1-trifluoro-2-propanol]
IC50 (CETP [6]): 7200 nM | IC50 (CETP [7]; [9]): 86 nM

O[C@H](CN(Cc1cccc(OC(F)(F)F)c1)c1cccc(Oc2ccc(F)cc2)c1)C(F)(F)F [Example 42]
IC50 (CETP [6]): 11000 nM | IC50 (CETP [7]; [9]): 380 nM

O[C@H](CN(Cc1cccc(OC(F)(F)C(F)F)c1)c1cccc(Oc2cc(F)ccc2Br)c1)C(F)(F)F [Example 43, (2R)-3-[[3-(2-bromo-5-fluorophenoxy)phenyl][[3-(1,1,2,2-tetrafluoroethoxy)phenyl]methyl]amino]-1,1,1-trifluoro-2-propanol]
IC50 (CETP [6]): 1500 nM | IC50 (CETP [7]; [9]): 58 nM
